Results: US20250228239A1, “MOLECULES HAVING PESTICIDAL UTILITY, AND INTERMEDIATES, COMPOSITIONS, AND PROCESSES, RELATED THERETO” (priority 2024, published 2025)
Where two headings read alike, the source gives them in different places.

Legend:
[1] = test system: Beet Armyworm (Spodoptera exigua, LAPHEG); assay: Bioassays on Beet Armyworm (BAW), 128-well diet tray assay; assay type: in vivo; details: Spodoptera exigua, read-out: BAW
How it was run: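 Diet-overlay assay: 50 μg/cm^2 compound applied in 90:10 acetone-water to artificial diet, allowed to dry, then infested with 1–5 L2 larvae/well; 8 wells/compound; covered, vented; 25° C., 14:10 L:D, 5–7 d; % mortality per well, averaged.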

[2] = test system: Cabbage Looper (Trichoplusia ni, TRIPNI); assay: Bioassays on Cabbage Looper (CL), 128-well diet tray assay; assay type: in vivo; details: Trichoplusia ni, read-out: CL
How it was run: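 Percent mortality, averaged across eight replicate wells, after second-instar larvae (1–5 per well) fed for five to seven days on diet dosed at 50 μg/cm^2. Compound was applied in acetone-water 90:10 and dried; trays kept vented at 25° C under 14:10 photoperiod.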

[3] = Table ABC: Biological Results, species BAW
[4] = Table ABC: Biological Results, species CL

SMILES	pest or weed control at 50 µg/cm2 [1, 3] [%]	pest or weed control at 50 µg/cm2 [2, 4] [%]	pest or weed control at 50 µg/cm2 ([1]; Beet Armyworm, rating class) [%]	pest or weed control at 50 µg/cm2 ([2]; Cabbage Looper, rating class) [%]
Nc1c(F)ccc(NC(=O)c2cc(NC(=O)[C@H]3[C@H](c4ccc(F)c(Cl)c4)C3(Cl)Cl)cc(C(F)(F)F)c2Cl)c1F (relative stereo) [F1225, trans-N-(3-Amino-2,4-difluorophenyl)-2-chloro-5-(2,2-dichloro-3-(3-chloro-4-fluorophenyl)cyclopropane-1-carboxamido)-3-(trifluoromethyl)benzamide]	50 to 100	50 to 100	–	–
COc1c(F)cc(NC(=O)[C@H]2[C@H](c3ccc(F)c(Cl)c3)C2(Cl)Cl)cc1C(=O)Nc1ccc(F)c(N)c1F (relative stereo) [F1226, trans-N-(3-Amino-2,4-difluorophenyl)-5-(2,2-dichloro-3-(3-chloro-4-fluoro-phenyl)cyclopropane-1-carboxamido)-3-fluoro-2-methoxybenzamide]	50 to 100	50 to 100	–	–
COc1c(Cl)cc(NC(=O)[C@H]2[C@H](c3ccc(F)c(Cl)c3)C2(Cl)Cl)cc1C(=O)Nc1ccc(F)cc1 (relative stereo) [F1235, trans-3-Chloro-5-(2,2-dichloro-3-(3-chloro-4-fluorophenyl)cyclopropane-1-carboxamido)-N-(4-fluorophenyl)-2-methoxybenzamide]	50 to 100	50 to 100	–	–
COc1c(Cl)cc(NC(=O)[C@H]2[C@H](c3ccc(F)c(Cl)c3)C2(Cl)Cl)cc1C(=O)Nc1ccc(F)cc1F (relative stereo) [F1236, trans-3-Chloro-5-(2,2-dichloro-3-(3-chloro-4-fluorophenyl)cyclopropane-1-carboxamido)-N-(2,4-difluorophenyl)-2-methoxybenzamide]	50 to 100	50 to 100	–	–
Cc1cc(NC(=O)c2cc(NC(=O)[C@H]3[C@H](c4cc(Cl)cc(Cl)c4)C3(Cl)Cl)ccc2Cl)c(C)cc1N (relative stereo) [F1257, trans-N-(4-Amino-2,5-dimethylphenyl)-2-chloro-5-(2,2-dichloro-3-(3,5-dichlorophenyl)cyclopropane-1-carboxamido)benzamide]	50 to 100	50 to 100	–	–
Nc1c(F)ccc(NC(=O)c2cc(NC(=O)[C@H]3[C@@H](c4cc(Cl)cc(S(F)(F)(F)(F)F)c4)C3(Cl)Cl)ccc2Cl)c1F (relative stereo) [F1260, cis-N-(3-Amino-2,4-difluorophenyl)-2-chloro-5-(2,2-dichloro-3-(3-chloro-5-(pentafluoro-λ^6-sulfanyl)phenyl)cyclopropane-1-carboxamido)benzamide]	50 to 100	50 to 100	–	–
COC(=O)c1c(F)ccc(NC(=O)c2cc(NC(=O)[C@H]3[C@H](c4cc(Cl)cc(Cl)c4)C3(Cl)Cl)ccc2Cl)c1F (relative stereo) [F1265, trans-Methyl 3-(2-chloro-5-(2,2-dichloro-3-(3,5-dichlorophenyl)cyclopropane-1-carboxamido)benzamido)-2,6-difluorobenzoate]	50 to 100	50 to 100	–	–
Cc1c(F)cc(NC(=O)[C@H]2[C@H](c3ccc(F)c(Cl)c3)C2(Cl)Cl)cc1C(=O)Nc1ccc(F)c(N)c1F (relative stereo) [F1286, trans-N-(3-Amino-2,4-difluorophenyl)-5-(2,2-dichloro-3-(3-chloro-4-fluorophenyl)cyclopropane-1-carboxamido)-3-fluoro-2-methylbenzamide]	50 to 100	50 to 100	–	–
O=C(Nc1ccc(F)c(NC(=O)C(F)F)c1F)c1cc(NC(=O)[C@H]2[C@H](c3cccc(S(F)(F)(F)(F)F)c3)C2(Cl)Cl)ccc1Cl (relative stereo) [F1293, trans-2-Chloro-5-(2,2-dichloro-3-(3-(pentafluoro-λ^6-sulfanyl)phenyl)cyclopropane-1-carboxamido)-N-(3-(2,2-difluoroacetamido)-2,4-difluorophenyl)benzamide]	50 to 100	50 to 100	–	–
O=C(Nc1ccc(Br)cc1F)c1cc(NC(=O)[C@H]2[C@H](c3cc(Cl)cc(Cl)c3)C2(Cl)Cl)ccc1Cl (relative stereo) [F1306, trans-N-(4-Bromo-2-fluorophenyl)-2-chloro-5-(2,2-dichloro-3-(3,5-dichlorophenyl)cyclopropane-1-carboxamido)benzamide]	50 to 100	50 to 100	–	–
O=C(Nc1ccc(F)c(Br)c1F)c1cc(NC(=O)[C@H]2[C@H](c3cc(Cl)cc(Cl)c3)C2(Cl)Cl)ccc1Cl (relative stereo) [F1307, trans-N-(3-Bromo-2,4-difluorophenyl)-2-chloro-5-(2,2-dichloro-3-(3,5-dichlorophenyl)cyclopropane-1-carboxamido)benzamide]	50 to 100	50 to 100	–	–
O=C(Nc1cc(Br)c(F)cc1F)c1cc(NC(=O)[C@H]2[C@H](c3cc(Cl)cc(Cl)c3)C2(Cl)Cl)ccc1Cl (relative stereo) [F1308, trans-N-(5-Bromo-2,4-difluorophenyl)-2-chloro-5-(2,2-dichloro-3-(3,5-dichlorophenyl)cyclopropane-1-carboxamido)benzamide]	50 to 100	50 to 100	–	–
C=C(F)c1cc(F)cc(F)c1NC(=O)c1cc(NC(=O)[C@H]2[C@H](c3cc(Cl)cc(Cl)c3)C2(Cl)Cl)ccc1Cl (relative stereo) [F1322, trans-2-Chloro-5-(2,2-dichloro-3-(3,5-dichlorophenyl)cyclopropane-1-carboxamido)-N-(2,4-difluoro-6-(1-fluorovinyl)phenyl)benzamide]	50 to 100	50 to 100	–	–
O=C(Nc1ccc(F)c(NC(=O)C(F)F)c1F)c1cc(NC(=O)[C@H]2[C@H](c3cc(Cl)c(F)c(Cl)c3)C2(Cl)Cl)ccc1Cl (relative stereo) [F1331, trans-2-Chloro-5-(2,2-dichloro-3-(3,5-dichloro-4-fluorophenyl)cyclopropane-1-carboxamido)-N-(3-(2,2-difluoroacetamido)-2,4-difluorophenyl)benzamide]	50 to 100	50 to 100	–	–
O=C(Nc1ccc(F)c(NC(=O)C(F)(F)F)c1F)c1cc(NC(=O)[C@H]2[C@H](c3cc(Cl)c(F)c(Cl)c3)C2(Cl)Cl)ccc1Cl (relative stereo) [F1332, trans-2-Chloro-5-(2,2-dichloro-3-(3,5-dichloro-4-fluorophenyl)cyclopropane-1-carboxamido)-N-(2,4-difluoro-3-(2,2,2-trifluoroacetamido)phenyl)benzamide]	50 to 100	50 to 100	–	–
Cc1cc(NCc2ccc(NC(=O)OC(C)(C)C)cc2)ccc1NC(=O)c1cc(NC(=O)[C@H]2[C@H](c3cc(Cl)cc(Cl)c3)C2(Cl)Cl)ccc1Cl (relative stereo) [F1348, trans-tert-Butyl (4-(((4-(2-chloro-5-(2,2-dichloro-3-(3,5-dichlorophenyl)cyclopropane-1-carboxamido)benzamido)-3-methylphenyl)amino)methyl)phenyl)carbamate]	50 to 100	50 to 100	–	–
O=C(Nc1ccc(Cl)c(NC(=O)C(F)(F)F)c1)c1cc(NC(=O)[C@H]2[C@H](c3ccc(F)c(Cl)c3)C2(Cl)Cl)ccc1Cl (relative stereo) [F1366, trans-2-Chloro-N-(4-chloro-3-(2,2,2-trifluoroacetamido)phenyl)-5-(2,2-dichloro-3-(3-chloro-4-fluorophenyl)cyclopropane-1-carboxamido)benzamide]	50 to 100	50 to 100	–	–
Nc1c(Cl)cc(NC(=O)c2cc(NC(=O)[C@H]3[C@H](c4ccc(F)c(Cl)c4)C3(Cl)Cl)ccc2Cl)cc1Cl (relative stereo) [F1367, trans-N-(4-Amino-3,5-dichlorophenyl)-2-chloro-5-(2,2-dichloro-3-(3-chloro-4-fluorophenyl)cyclopropane-1-carboxamido)benzamide]	50 to 100	50 to 100	–	–
N#Cc1cc(NC(=O)c2cc(NC(=O)[C@H]3[C@H](c4ccc(F)c(Cl)c4)C3(Cl)Cl)ccc2Cl)ccc1NC(=O)C(F)(F)F (relative stereo) [F1388, trans-2-Chloro-N-(3-cyano-4-(2,2,2-trifluoroacetamido)phenyl)-5-(2,2-dichloro-3-(3-chloro-4-fluorophenyl)cyclopropane-1-carboxamido)benzamide]	50 to 100	50 to 100	–	–
Nc1c(F)ccc(NC(=O)c2cc(NC(=O)[C@H]3[C@H](c4ccc(F)c(I)c4)C3(Cl)Cl)ccc2Cl)c1F (relative stereo) [F1622, trans-N-(3-Amino-2,4-difluorophenyl)-2-chloro-5-(2,2-dichloro-3-(4-fluoro-3-iodophenyl)cyclopropane-1-carboxamido)benzamide]	–	–	50 to 100	50 to 100
O=C(Nc1ccc(F)c(NC(=O)C(F)F)c1F)c1cc(NC(=O)[C@H]2[C@H](c3cc(Cl)c(Cl)c(Br)c3)C2(Cl)Cl)ccc1Cl (relative stereo) [F1623, trans-5-(3-(3-Bromo-4,5-dichlorophenyl)-2,2-dichlorocyclopropane-1-carboxamido)-2-chloro-N-(3-(2,2-difluoroacetamido)-2,4-difluorophenyl)benzamide]	–	–	50 to 100	50 to 100
